Measured values published in the supplement of paper PMC10307832.

Assays:
Test in all cases: relative viability (nuclei count vs DMSO), 5 days (fraction); higher = more cells survive
VE-821 + Linsitinib = compound: CS(=O)(=O)c1ccc(-c2cnc(N)c(C(=O)Nc3ccccc3)n2)cc1 [VE-821] + C[C@]1(O)C[C@@H](c2nc(-c3ccc4ccc(-c5ccccc5)nc4c3)c3c(N)nccn32)C1 [Linsitinib] (partner 1 µM)
Procedure, shortened: (§1)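 Lung cancer cell lines were pin-tool dosed in 1536-well plates on the day after seeding, with either a lone drug or a fixed anchor-drug dose plus five library-drug doses (not always all listed) in √10 steps. Nuclei were counted on 4× images after 5 days. Relative viability is the ratio of treated-well to vehicle-well nuclei counts, with each value a median of duplicate plates.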

Vismodegib + Foretinib = compound: CS(=O)(=O)c1ccc(C(=O)Nc2ccc(Cl)c(-c3ccccn3)c2)c(Cl)c1 [Vismodegib] + COc1cc2c(Oc3ccc(NC(=O)C4(C(=O)Nc5ccc(F)cc5)CC4)cc3F)ccnc2cc1OCCCN1CCOCC1 [Foretinib] (partner 0.25 µM)
Procedure, shortened: as §1

Vismodegib + Decitabine = compound: CS(=O)(=O)c1ccc(C(=O)Nc2ccc(Cl)c(-c3ccccn3)c2)c(Cl)c1 [Vismodegib] + Nc1ncn([C@H]2C[C@H](O)[C@@H](CO)O2)c(=O)n1 [Decitabine] (partner 2 µM)
Procedure, shortened: as §1

Ruxolitinib + Alpelisib = compound: N#CC[C@H](C1CCCC1)n1cc(-c2ncnc3[nH]ccc23)cn1 [Ruxolitinib] + Cc1nc(NC(=O)N2CCC[C@H]2C(N)=O)sc1-c1ccnc(C(C)(C)C(F)(F)F)c1 [Alpelisib] (partner 2 µM)
Procedure, shortened: as §1

| Cell Line | relative viability (VE-821 + Linsitinib; first compound 0.08 µM) | relative viability (VE-821 + Linsitinib; first compound 0.8 µM) | relative viability (VE-821 + Linsitinib; first compound 2.53 µM) | relative viability (VE-821 + Linsitinib; first compound 8 µM) | relative viability (Vismodegib + Foretinib; first compound 0.08 µM) | relative viability (Vismodegib + Foretinib; first compound 0.253 µM) | relative viability (Vismodegib + Foretinib; first compound 0.8 µM) | relative viability (Vismodegib + Foretinib; first compound 2.53 µM) | relative viability (Vismodegib + Foretinib; first compound 8 µM) | relative viability (Vismodegib + Decitabine; first compound 0.08 µM) | relative viability (Vismodegib + Decitabine; first compound 0.253 µM) | relative viability (Vismodegib + Decitabine; first compound 0.8 µM) | relative viability (Vismodegib + Decitabine; first compound 2.53 µM) | relative viability (Vismodegib + Decitabine; first compound 8 µM) | relative viability (Ruxolitinib + Alpelisib; first compound 0.08 µM) | relative viability (Ruxolitinib + Alpelisib; first compound 0.253 µM) | relative viability (Ruxolitinib + Alpelisib; first compound 0.8 µM) | relative viability (Ruxolitinib + Alpelisib; first compound 2.53 µM) | relative viability (Ruxolitinib + Alpelisib; first compound 8 µM) | relative viability (VE-821 + Linsitinib; first compound 0.253 µM) |
| --- | --- | --- | --- | --- | --- | --- | --- | --- | --- | --- | --- | --- | --- | --- | --- | --- | --- | --- | --- | --- |
| NCI-H322M | 0.933 | 1 | 0.93 | 0.771 | 1.01 | 0.965 | 1.01 | 0.87 | 0.97 | 0.694 | 0.651 | 0.661 | 0.822 | 0.635 | 0.901 | 0.844 | 0.873 | 0.802 | 1.01 |  |
| HCC-366 | 0.907 | 0.329 | 0.477 | 0.0616 | 0.893 | 0.925 | 0.877 | 0.956 | 0.864 | 0.374 | 0.283 | 0.377 | 0.331 | 0.311 | 0.349 | 0.322 | 0.366 | 0.36 | 0.46 | 0.49 |
| HCC-78 | 0.626 | 0.404 | 0.477 | 0.328 | 0.515 | 0.538 | 0.511 | 0.593 | 0.532 | 0.561 | 0.736 | 0.661 | 0.698 | 0.786 | 0.289 | 0.249 | 0.308 | 0.277 | 0.337 | 0.575 |
| EKVX | 1.2 | 0.643 | 0.932 | 0.681 | 0.744 | 0.702 | 1.05 | 0.724 | 0.737 |  | 0.383 | 0.327 | 0.297 | 0.336 | 0.769 | 0.862 | 1 | 0.92 | 0.832 | 0.893 |
| HARA | 1.03 | 0.931 | 0.972 | 0.702 | 0.977 | 0.992 | 0.41 | 0.805 | 1.03 | 0.553 |  | 0.514 | 0.509 | 0.55 | 0.862 | 0.817 | 0.785 | 0.697 | 0.857 | 1.02 |
| LXF-289 | 0.992 | 1.06 | 1.1 | 1.07 | 0.943 | 0.913 | 1.01 | 0.97 | 0.922 | 0.324 | 0.414 | 0.369 | 0.363 | 0.431 | 1.01 | 1 | 1.04 | 0.948 | 0.815 | 0.945 |
| NCI-H1793 | 1.01 | 0.459 | 1.01 | 0.698 |  | 0.524 | 0.616 | 0.848 | 0.609 |  | 0.475 | 0.58 | 0.476 | 0.579 | 0.539 | 0.654 | 0.789 | 0.83 | 0.679 | 0.846 |
| NCI-H650 | 0.959 | 0.863 | 0.949 | 0.714 | 0.792 | 0.999 | 0.988 | 1.03 | 0.951 | 0.33 | 0.314 | 0.329 | 0.344 | 0.298 |  | 1.33 | 1.23 | 0.964 | 0.667 | 0.843 |
| NCI-H647 | 1.44 | 0.829 | 0.751 | 0.493 | 1.24 | 1.22 | 1.26 | 1.02 | 1.14 | 0.38 | 0.327 | 0.38 | 0.385 | 0.409 | 1.33 | 1.11 | 1.15 | 0.941 | 0.643 | 1.28 |
| NCI-H3122 | 1.06 | 0.989 | 1.05 | 0.967 | 0.994 | 0.938 | 0.849 | 0.858 | 1.02 | 0.469 | 0.499 | 0.512 | 0.423 | 0.323 | 0.807 | 0.786 | 0.851 | 0.556 | 0.617 | 0.955 |
| PC-3 [JPC-3] | 0.923 | 1.05 | 1.07 | 1.01 | 1.08 | 1.01 | 0.965 | 0.993 | 1.03 | 0.863 | 0.838 | 0.904 | 0.814 | 0.864 | 0.763 | 1.05 | 1.1 | 0.991 | 0.932 | 0.932 |
| NCI-H1355 | 0.803 | 0.654 | 0.767 | 0.56 | 0.92 | 0.988 | 0.904 | 0.997 | 0.987 | 0.354 | 0.333 | 0.347 | 0.372 | 0.364 | 0.793 | 0.83 | 0.85 | 0.58 | 0.612 | 0.789 |
| NCI-H838 | 1.13 | 0.913 | 1.11 | 0.913 | 0.987 | 0.979 | 0.997 | 1.06 | 1.03 | 0.464 | 0.43 | 0.502 | 0.431 | 0.609 | 0.848 | 0.973 | 0.823 | 0.618 | 0.31 | 0.992 |
